Laboratory results as given in ChEMBL document CHEMBL2069172, “Transition state analogue inhibitors of human methylthioadenosine phosphorylase and bacterial methylthioadenosine/S-adenosylhomocysteine nucleosidase incorporating acyclic ribooxacarbenium ion mimics” (Bioorg Med Chem, 2012).

Columns and labels:
[1] = target: T1, S-methyl-5'-thioadenosine phosphorylase (Homo sapiens, UniProt Q13126); test: Inhibition of human MTAP assessed as reduction in methylthioadenosine phosphorolysis/hydrolysis
T1 sequence (Q13126 whole entry): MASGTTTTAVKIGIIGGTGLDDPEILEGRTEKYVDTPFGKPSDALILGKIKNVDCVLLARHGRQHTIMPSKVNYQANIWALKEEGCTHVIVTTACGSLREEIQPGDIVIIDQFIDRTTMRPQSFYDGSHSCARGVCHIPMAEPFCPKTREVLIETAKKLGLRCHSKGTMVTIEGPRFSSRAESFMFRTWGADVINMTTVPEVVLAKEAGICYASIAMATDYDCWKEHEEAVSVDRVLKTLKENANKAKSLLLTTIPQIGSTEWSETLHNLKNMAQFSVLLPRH

[2] = Inhibition of Escherichia coli MTAN assessed as reduction in methylthioadenosine phosphorolysis/hydrolysis
[3] = Inhibition of Neisseria meningitidis MTAN assessed as reduction in methylthioadenosine phosphorolysis/hydrolysi
Escherichia coli = test: Ratio of Km to Ki for Escherichia coli MTAN assessed as reduction in methylthioadenosine phosphorolysis/hydrolysis

SMILES	Ki [1]	Ki [2]	Ki [3]	Ratio (Escherichia coli)
CSC[C@@H](CNCc1c[nH]c2c(N)ncnc12)[C@@H](O)CO (racemic)	34 nM	9 nM	5 nM	–
CSC[C@H]1CN(Cc2c[nH]c3c(N)ncnc23)C[C@@H]1O	–	–	0.14 nM	–
CSC[C@H](O)[C@@H](CO)NCc1c[nH]c2c(N)ncnc12	87 nM	–	–	–
CSC[C@H](CO)N[C@H](CO)c1c[nH]c2c(N)ncnc12	–	1720 nM	47 nM	–
CSC[C@H]1N[C@@H](c2c[nH]c3c(N)ncnc23)[C@H](O)[C@@H]1O	–	0.08 nM	0.36 nM	–
CSC[C@@H](O)[C@@H](CO)NCc1c[nH]c2c(N)ncnc12	5.2 nM	–	–	–
CSC[C@@H](O)[C@H](CO)NCc1c[nH]c2c(N)ncnc12	34 nM	–	–	–
CSC[C@H](O)[C@@H](CO)CN(C)Cc1c[nH]c2c(N)ncnc12 (racemic)	105 nM	401 nM	132 nM	–
CSC[C@@H](CO)NCc1c[nH]c2c(N)ncnc12	4.4 nM	–	–	1200
CSCC(CO)CNCc1c[nH]c2c(N)ncnc12 (racemic)	10 nM	0.36 nM	1.2 nM	–
CSCC(CO)(CO)NCc1c[nH]c2c(N)ncnc12	–	5.8 nM	4 nM	–
CSCC(CO)NCc1c[nH]c2c(N)ncnc12 (racemic)	12 nM	–	0.8 nM	–
CSC[C@H](O)[C@@H](O)CN(C)Cc1c[nH]c2c(N)ncnc12 (racemic)	368 nM	202 nM	85 nM	–
CSC[C@H](CO)NCc1c[nH]c2c(N)ncnc12	34 nM	–	–	–
CSC[C@@H](CN(C)Cc1c[nH]c2c(N)ncnc12)[C@@H](O)CO (racemic)	12 nM	2300 nM	61 nM	19
CSC[C@@H](O)CNCc1c[nH]c2c(N)ncnc12	602 nM	40 nM	36 nM	–
